Measurements as given in PMC10887214 (Biomedicines, 2024).

Tests used:
[1] = biological target: T1, CB1 receptor (hCB1) (Homo sapiens, UniProt P21554); assay: Two-electrode voltage-clamp, CB1-GIRK1/GIRK2-RGS4 coupling system expressed in Xenopus oocytes; format: cell-based
T1 construct: expressed in transfected cells; host or cells: Xenopus laevis oocytes (cRNA injection)

[2] = biological target: T2, CB2 receptor (hCB2) (Homo sapiens, UniProt P34972); assay: Two-electrode voltage-clamp, CB2-GIRK1/GIRK2-RGS4 coupling system expressed in Xenopus oocytes; format: cell-based
T2 construct: expressed in transfected cells; host or cells: Xenopus laevis oocytes (cRNA injection)

[3] = biological target: T3, GIRK1/GIRK2 channels (Mus musculus, UniProt P48542+P63250); assay: Two-electrode voltage-clamp, GIRK1/GIRK2 channels expressed in oocytes; format: cell-based; conditions: 100 μM OS, HK
T3 construct: expressed in transfected cells; host or cells: Xenopus laevis oocytes (cRNA injection)
T3 sequence (P63250 1-501): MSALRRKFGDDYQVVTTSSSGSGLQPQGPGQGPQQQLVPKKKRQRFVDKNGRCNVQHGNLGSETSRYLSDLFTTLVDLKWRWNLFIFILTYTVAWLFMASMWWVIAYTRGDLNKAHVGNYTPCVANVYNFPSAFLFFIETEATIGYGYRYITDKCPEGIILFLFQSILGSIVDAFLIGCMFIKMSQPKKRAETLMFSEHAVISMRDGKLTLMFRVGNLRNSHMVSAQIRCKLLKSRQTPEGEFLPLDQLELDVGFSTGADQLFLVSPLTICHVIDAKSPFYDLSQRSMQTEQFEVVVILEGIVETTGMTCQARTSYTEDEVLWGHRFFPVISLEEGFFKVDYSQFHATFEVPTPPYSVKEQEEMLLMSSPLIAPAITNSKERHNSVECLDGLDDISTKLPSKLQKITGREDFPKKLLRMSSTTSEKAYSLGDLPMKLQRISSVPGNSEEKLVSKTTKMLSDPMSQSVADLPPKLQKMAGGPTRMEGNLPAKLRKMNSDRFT
T3 sequence (P48542 1-425): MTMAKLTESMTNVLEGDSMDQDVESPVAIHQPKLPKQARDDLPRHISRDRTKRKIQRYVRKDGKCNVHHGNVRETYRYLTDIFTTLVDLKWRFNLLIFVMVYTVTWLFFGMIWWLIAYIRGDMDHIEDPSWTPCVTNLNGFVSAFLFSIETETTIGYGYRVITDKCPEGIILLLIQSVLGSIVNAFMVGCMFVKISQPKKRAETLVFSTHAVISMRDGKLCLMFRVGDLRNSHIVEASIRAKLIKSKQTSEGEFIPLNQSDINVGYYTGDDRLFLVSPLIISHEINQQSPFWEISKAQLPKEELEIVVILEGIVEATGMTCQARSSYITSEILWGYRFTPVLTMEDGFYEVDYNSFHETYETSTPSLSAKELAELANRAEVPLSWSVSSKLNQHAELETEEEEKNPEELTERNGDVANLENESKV
Description: In vitro transcription of cDNA clones.
Heterologous expression in Xenopus laevis oocytes.
Electrophysiological measurements.

[4] = system: C57BL/6J mice; assay: Open Field (OF); format: in vivo, mouse; conditions: i.p.
Description: (§1) Animal housing. Forty-eight Male C57BL/6J mice were purchased from Janvier Labs (Le Genest-Saint-Isle, France) and were time-specifically housed in a 12 h light-dark cycle (lights on at 7 am), with ad libitum water and food in conditioned rooms (22 °C, humidity ~60%).
(§2) Behavior assays. All mice were subjected to a behavioral test battery that consisted of several general performance tasks of locomotor activity, exploratory and anxiety-like behavior, and learning and memory. Mice were divided into four groups: Vehicle, OS (2 mg/kg), WIN55 (0.5 mg/kg), or OS + WIN. Each group consisted of 7–14 mice that received two i.p injections before each test, with a 10 min interval between each injection. Veh + Veh were injected with PBS. Veh + WIN were injected with PBS and WIN55. Veh + OS were injected with PBS and OS. OS + WIN were injected with OS and WIN55. PBS was used as vehicle as it was used for dilution of drugs. Tests were performed in the order described below after 10 min of the last injection, with a 24 h interval between each test.
Open Field (OF): One day after the cage activity test, mice were tested in the OF paradigm. The OF aimed to test the OS, WIN, and OS + WIN effect on animal locomotion and exploratory behavior. Animals were placed in the test room one hour before starting the test. For the OF, animals were placed in a plexiglass box (60 × 60 × 60 cm) divided into three zones (center, periphery, and corners) for 10 min and left free to explore. Total distance and time in zones were counted. Here, more time in the center meant an anxiolytic effect, and a higher distance walking meant an increase in locomotor activity. For this test, we used Veh (n = 8), OS (n = 10), WIN (n = 7), OS + WIN (n = 8).

[5] = system: C57BL/6J mice; assay: Elevated Plus Maze (EPM); format: in vivo, mouse; conditions: i.p., OS 2 mg/kg, WIN 0.5 mg/kg
Description: as §1
as §2, with “Tests were performed in the order described below after 10 min of the last injection, with a 24 h interval between each test.” left out
Elevated Plus Maze (EPM): EPM was used to assess the effects of OS, WIN, and OS + WIN on anxiety-like behavior. […] Time in open and closed arms was measured over 10 min. Anxiety index (AI) was calculated using the following equation: AI = 1 − [([time the animal remained in the open arms (seconds)/test duration] + [input frequency in the open arms/total number of entries])/2]. […]

[6] = biological target: 5-HT4aR (Mus musculus, UniProt P97288)
[7] = biological target: MRGPRX2 (Homo sapiens, UniProt Q96LB1)
[8] = system: TRPV1; set-up: method as in PMID 17279090; conditions: HEK cells overexpressing TRPV1; read-out: IC50 as antagonist of TRPV1; cited from earlier work
[9] = system: chimeric CB1/2 receptor; assay: Two-electrode voltage-clamp, chimeric CB1/2-GIRK1/GIRK2-RGS4 coupling system expressed in oocytes; conditions: 100 μM OS + 0.5 μM WIN55,212-2
[10] = 100 μM OS co-applied with 0.3 μM WIN55,212-2

T1 sequence (P21554 whole entry): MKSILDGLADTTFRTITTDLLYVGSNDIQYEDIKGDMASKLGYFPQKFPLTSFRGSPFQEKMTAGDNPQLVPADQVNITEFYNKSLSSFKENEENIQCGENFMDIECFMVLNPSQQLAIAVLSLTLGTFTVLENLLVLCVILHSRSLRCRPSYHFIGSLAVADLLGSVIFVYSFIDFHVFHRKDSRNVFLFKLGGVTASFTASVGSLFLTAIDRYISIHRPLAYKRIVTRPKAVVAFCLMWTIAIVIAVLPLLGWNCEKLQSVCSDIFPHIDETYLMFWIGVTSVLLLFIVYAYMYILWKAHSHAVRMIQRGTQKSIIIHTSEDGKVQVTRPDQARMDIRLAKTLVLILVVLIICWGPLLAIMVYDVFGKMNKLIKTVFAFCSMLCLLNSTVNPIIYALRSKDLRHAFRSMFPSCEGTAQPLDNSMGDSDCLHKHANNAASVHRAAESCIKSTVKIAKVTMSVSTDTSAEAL
T2 sequence (P34972 whole entry): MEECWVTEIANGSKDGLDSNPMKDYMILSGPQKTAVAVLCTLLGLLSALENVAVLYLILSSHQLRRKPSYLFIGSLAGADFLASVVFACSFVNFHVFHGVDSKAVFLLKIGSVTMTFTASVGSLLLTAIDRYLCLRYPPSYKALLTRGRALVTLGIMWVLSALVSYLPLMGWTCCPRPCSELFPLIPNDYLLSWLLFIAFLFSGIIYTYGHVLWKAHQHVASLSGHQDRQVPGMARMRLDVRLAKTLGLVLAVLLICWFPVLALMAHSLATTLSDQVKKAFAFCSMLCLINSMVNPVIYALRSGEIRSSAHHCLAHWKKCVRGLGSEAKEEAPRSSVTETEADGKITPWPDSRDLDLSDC
Chain of MRGPRX2 (Q96LB1 whole entry): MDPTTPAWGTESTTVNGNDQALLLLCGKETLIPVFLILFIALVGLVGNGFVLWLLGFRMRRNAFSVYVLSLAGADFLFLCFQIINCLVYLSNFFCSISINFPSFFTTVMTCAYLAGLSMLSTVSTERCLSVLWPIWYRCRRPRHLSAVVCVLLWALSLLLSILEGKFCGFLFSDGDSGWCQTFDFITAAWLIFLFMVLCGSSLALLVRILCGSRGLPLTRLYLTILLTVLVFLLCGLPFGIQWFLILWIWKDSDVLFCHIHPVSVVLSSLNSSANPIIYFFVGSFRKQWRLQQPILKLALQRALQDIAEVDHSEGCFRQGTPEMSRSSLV
Chain of 5-HT4aR (P97288 1-387 isoform P97288-2): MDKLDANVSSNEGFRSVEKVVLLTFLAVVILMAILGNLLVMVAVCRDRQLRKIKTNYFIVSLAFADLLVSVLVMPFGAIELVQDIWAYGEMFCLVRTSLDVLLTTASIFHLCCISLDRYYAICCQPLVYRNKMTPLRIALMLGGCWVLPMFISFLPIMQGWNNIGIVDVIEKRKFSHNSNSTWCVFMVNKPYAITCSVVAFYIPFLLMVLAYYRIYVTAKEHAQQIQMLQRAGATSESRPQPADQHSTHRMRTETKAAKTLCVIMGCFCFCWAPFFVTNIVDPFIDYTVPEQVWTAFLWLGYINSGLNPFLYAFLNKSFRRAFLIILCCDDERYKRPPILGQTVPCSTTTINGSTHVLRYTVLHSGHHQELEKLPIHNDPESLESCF

CCCCCCCC/C=C\CCCCCCCC(=O)NCCc1c[nH]c2ccc(O)cc12 [OS, oleoyl serotonin]
Effect on WIN55,212-2-induced inward K+ currents (IK,WIN+OS) [1, 10]: inhibited
Effect of OS alone on IK,basal ([1]; 100 μM OS, 20–30 s, in HK): did not change the response of IK,basal
IC50 ([1]; IC50 of blocking CB1 receptor activated by WIN55,212-2, 0.03 μM WIN + OS): 2.4 µM
IC50 ([1]; IC50 of blocking CB1 receptor activated by WIN55,212-2, 0.1 μM WIN + OS): 6.5 µM
IC50 ([1]; IC50 of blocking CB1 receptor activated by WIN55,212-2, 0.3 μM WIN + OS): 16.2 µM
IC50 ([1]; IC50 of blocking CB1 receptor activated by WIN55,212-2, 1 μM WIN + OS): 34.1 µM
Mode of antagonism ([1]; against WIN55,212-2): competitively blocked
Effect on WIN55,212-2-induced inward K+ currents (IK,WIN+OS) [2, 10]: inhibited
Effect of OS alone on IK,basal ([2]; 100 μM OS, 20–30 s, in HK): did not change the response of IK,basal
IC50 ([2]; IC50 of blocking CB2 receptor activated by WIN55,212-2, 0.03 μM WIN + OS): 14.8 µM
IC50 ([2]; IC50 of blocking CB2 receptor activated by WIN55,212-2, 0.1 μM WIN + OS): 13.2 µM
IC50 ([2]; IC50 of blocking CB2 receptor activated by WIN55,212-2, 0.3 μM WIN + OS): 12.1 µM
IC50 ([2]; IC50 of blocking CB2 receptor activated by WIN55,212-2, 1 μM WIN + OS): 10.4 µM
Mode of antagonism ([2]; against WIN55,212-2): non-competitively blocked
Effect on IK,basal [3]: did not significantly change IK,basal
Effect of OS injection on the WIN-induced decrease of time in the periphery ([4]; OS 2 mg/kg before WIN 0.5 mg/kg): prevented this decrease
Total distance walked in open field (locomotion) ([4]; OS 2 mg/kg, WIN 0.5 mg/kg, 10 min test): neither OS nor WIN affected locomotion
Time spent in the center zone of open field ([4]; OS 2 mg/kg, WIN 0.5 mg/kg, compared with Veh + WIN): spent more time than the WIN-only group
Anxiety-like behavior (time in open and closed arms, anxiety index) [5]: did not exhibit significant effects
Activity in selectivity screening [6]: did not show significant activity
Activity in selectivity screening [7]: did not show significant activity
IC50 [8]: 2.57 µM
Effect on WIN55,212-2-induced receptor-dependent inward K+ currents (IK,WIN) [9]: did not change the response
